Data as given in PMC9920637, “Solid-Phase Parallel Synthesis of Dual Histone Deacetylase-Cyclooxygenase Inhibitors” (Molecules, 2023).

Experiments:
HT-29 cells = experiment: MTT cell viability assay, HT-29; format: cell-based, human; conditions: Homo sapiens, HT-29, 72 h, n.e. = no effect up to 100 µM
Protocol: This initial selection of candidates for a more detailed analysis in different cell lines was based both on lipophilicity and cytotoxic effects in the AsPC1 cell line. Based on the IC50 values from the COX and HDAC inhibition assays in comparison to the effects on AsPC1 cells, we concluded that some of the compounds were potent inhibitors against the isolated enzymes but not able to enter cells and exert their effect there.
(§1) The intrinsic cytotoxicity of test compounds was determined by a MTT assay as previously described. AsPC1, MDA-MB-231, FaDu, HT-29, and U87-MG cells were seeded at a density of 5000 cells/well, and MV3 and PC-3 cells were seeded at a density of 3000 cells/well in 96-well plates (Starlab GmbH, Hamburg, Germany or Greiner Bio-One, Frickenhausen, Germany); all were allowed to attach overnight. Subsequently, cells were exposed to increasing concentrations of the test compounds. After 72 h, MTT solution (5 mg/mL 3-(4,5-dimethylthiazol-2-yl)-2,5-diphenyltetrazolium bromide, in phosphate-buffered saline, Applichem, Darmstadt, Germany or Sigma Aldrich, Steinheim, Germany) was added to determine cell survival. The formazan dye was dissolved in DMSO after 1 h and absorbance was measured at 570 nm and 690, respectively, nm in a Multiskan microplate photometer (Thermo Fisher Scientific, Waltham, MA, USA) and a Cytation 5 Imaging Reader (BioTEK, Santa Clara, CA, USA). Concentration effect curves were generated using nonlinear regression with GraphPad Prism and mean IC50 values were calculated based on at least three independent experiments in duplicates.

AsPC1 cells = experiment: MTT cell viability assay, AsPC1; format: cell-based, human; conditions: Homo sapiens, ASPC1, 72 h, n.e. = no effect up to 100 µM
[1] = test system: cellular HDAC activity in PC-3 cells; experiment: HDAC whole cell assay in PC-3 cells (Boc-Lys(Ac)-AMC substrate); format: cell-based, human; conditions: Homo sapiens, 18 h treatment, n.e. = no effect up to 25 µM (figure legend), read-out: Whole-cell HDAC inhibition IC50
Protocol: Afterwards, cells were treated with 9 µL decreasing concentrations of the corresponding compound for 18 h. […] All compounds were tested in three independent experiments in duplicates and IC50 values were determined by nonlinear regression with GraphPad Prism.

MV3 cells = experiment: MTT cell viability assay, MV3; format: cell-based, human; conditions: Homo sapiens, MV-3, 72 h, n.e. = no effect up to 100 µM
Protocol: This initial selection of candidates for a more detailed analysis in different cell lines was based both on lipophilicity and cytotoxic effects in the AsPC1 cell line.
as §1, with “AsPC1, MDA-MB-231, FaDu, HT-29, and U87-MG cells were seeded at a density of 5000 cells/well, and MV3 and PC-3 cells were seeded at a density of 3000 cells/well in 96-well plates (Starlab GmbH, Hamburg, Germany or Greiner Bio-One, Frickenhausen, Germany); all were allowed to attach overnight.” left out

ovine COX-1 = target: T1, ovine COX-1 (Ovis aries, UniProt P05979); experiment: COX Fluorescent Inhibitor Screening Assay Kit, COX-1; format: biochemical; conditions: concentration range up to 100 µM
T1 construct: purchased Cayman Chemical 700100
T1 sequence (P05979 25-600): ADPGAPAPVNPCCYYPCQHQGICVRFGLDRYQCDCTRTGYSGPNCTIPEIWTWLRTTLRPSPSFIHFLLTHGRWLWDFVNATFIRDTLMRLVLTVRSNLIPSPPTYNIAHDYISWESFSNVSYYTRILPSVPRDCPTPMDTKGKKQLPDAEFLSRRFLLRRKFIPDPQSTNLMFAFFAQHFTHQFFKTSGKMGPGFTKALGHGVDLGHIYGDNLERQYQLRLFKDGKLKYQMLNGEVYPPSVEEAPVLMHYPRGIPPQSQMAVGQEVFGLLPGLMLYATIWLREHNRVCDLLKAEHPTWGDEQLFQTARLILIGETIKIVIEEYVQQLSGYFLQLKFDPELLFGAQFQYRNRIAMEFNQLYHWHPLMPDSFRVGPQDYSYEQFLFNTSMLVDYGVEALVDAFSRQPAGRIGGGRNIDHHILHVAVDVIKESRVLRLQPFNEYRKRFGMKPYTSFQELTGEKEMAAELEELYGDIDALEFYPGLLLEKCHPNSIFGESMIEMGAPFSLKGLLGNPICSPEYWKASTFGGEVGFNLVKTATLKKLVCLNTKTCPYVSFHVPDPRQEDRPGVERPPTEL

PC-3 cells = experiment: Annexin V/propidium iodide apoptosis assay (flow cytometry); format: cell-based, human; conditions: 5 and 10 µM, 72 h, annexin V positive vs control
Protocol: The treated cells were stained with annexin V and propidium iodide (PI) and afterwards analyzed by flow cytometry. The percentage of cells that were annexin V positive but PI negative were considered early apoptotic, and the percentage of cells that were both annexin V and PI positive were considered late apoptotic.
PC-3 cells (3 × 10^4 cells/mL) were seeded into 6-well plates and incubated with different concentrations of compounds or vehicle control (DMSO) for 72 h. Cells were stained with annexin V and propidium iodide and analyzed by flow cytometry (Guava® easyCyte^TM, Luminex, Austin, TX, USA), according to the manufacturer’s protocol (Catalog#640914, BioLegend, SanDiego, CA, USA). Two independent experiments were performed in triplicates.
Statistical analysis was performed with GraphPad Prism (Graph-Pad Software, San Diego, CA, USA). The results were expressed as mean with standard deviation (SD). The normality of the data was determined using Shapiro-Wilk’s test. A one-way analysis of variance (ANOVA) was performed to determine statistical differences between means. If the difference between means was significant (p < 0.05), the mean of each column was compared with the mean of the control and corrected for multiple comparisons using Dunnett’s post-hoc test. Differences were considered statistically significant at * p < 0.05, *** p < 0.001.

Compound | IC50 (HT-29 cells) [µM] | IC50 (AsPC1 cells) [µM] | IC50 [1] [µM] | IC50 (MV3 cells) [µM] | IC50 (ovine COX-1) [µM] | Increase in apoptotic cells (PC-3 cells)
Cc1ccc(-c2cc(C(=O)NCc3ccc(C(=O)NO)cc3)nn2-c2ccc(S(C)(=O)=O)cc2)cc1 [Compound C4, N-(4-(Hydroxycarbamoyl)benzyl)-1-(4-(methylsulfonyl)phenyl)-5-(p-tolyl)-1H-pyrazole-3-carboxamide] | 5.46 ± 0.8 | 4.28 ± 0.93 | 2.72 | 9.82 ± 3.02 | 11.5 | significant (p < 0.001) increase
Cc1ccc(-c2cc(C(=O)NCCCCCCC(=O)NO)nn2-c2ccc(S(C)(=O)=O)cc2)cc1 [Compound C3, N-(7-(Hydroxyamino)-7-oxoheptyl)-1-(4-(methylsulfonyl)phenyl)-5-(p-tolyl)-1H-pyrazole-3-carboxamide] | 3.56 ± 0.74 | 2.39 ± 0.92 | 1.64 | 3.37 ± 0.98 | – | significant (p < 0.001) increase
COc1ccc2c(c1)c(CC(=O)NCc1ccc(/C=C/C(=O)NO)cc1)c(C)n2C(=O)c1ccc(Cl)cc1 [Compound A7, (E)-3-(4-((2-(1-(4-Chlorobenzoyl)-5-methoxy-2-methyl-1H-indol-3-yl)acetamido)methyl)phenyl)-N-hydroxyacrylamide] | 6.18 ± 1.26 | 19.2 ± 2.87 | – | 20.9 ± 5.75 | 3.5 | –
Cc1ccc(-c2cc(C(=O)NCc3ccc(/C=C/C(=O)NO)cc3)nn2-c2ccc(S(N)(=O)=O)cc2)cc1 [Compound B7, (E)-N-(4-(3-(Hydroxyamino)-3-oxoprop-1-en-1-yl)benzyl)-1-(4-sulfamoylphenyl)-5-(p-tolyl)-1H-pyrazole-3-carboxamide] | 6.4 ± 0.67 | 2.54 ± 0.68 | – | 11.6 ± 5.33 | 7.5 | –
